Patent US5576341A, “2-[[2-(N-isobutyl-N-methyl)amino]benzylsulfinyl]-benzimidazole as antimicrobial agent” (Nippon Chemiphar Co., Ltd., priority 1993, dated 1996)
In brackets after ≈: the same amount, converted by molar mass.

Experiments:
[1] = tested on: Helicobacter pylori ATCC 43579; assay: MIC by agar plate dilution method (Experimental 2), ATCC 43579; settings: ATCC43579, 144 h
[2] = tested on: Helicobacter pylori ATCC 43629; assay: MIC by agar plate dilution method (Experimental 2), ATCC 43629; settings: ATCC43629, 144 h
[3] = tested on: Helicobacter pylori ATCC 43526; assay: MIC by agar plate dilution method (Experimental 2), ATCC 43526; settings: ATCC43526, 144 h
[4] = tested on: Helicobacter pylori Wild 1; assay: MIC by agar plate dilution method (Experimental 2), Wild 1; settings: WILD1, 144 h
[5] = tested on: Helicobacter pylori Wild 1; assay: MIC by agar plate dilution method (Experimental 2), Wild 1 (first line); settings: WILD1, 144 h
[6] = tested on: Helicobacter pylori; assay: microbe, parasite or virus in culture; settings: 144 h, read-out: MIC (minimal inhibitory concentration)
[7] = tested on: Helicobacter pylori NCTC 11637; assay: MIC by agar plate dilution method (Experimental 2), NCTC 11637; settings: NCTC11637, 144 h
[8] = tested on: Helicobacter pylori; settings: Antimicrobial Agents and Chemotherapy, March 1991, p.490-496; cited from earlier work

Structure (SMILES) | MIC [1] [µg/mL] | MIC [2] [µg/mL] | MIC [3] [µg/mL] | MIC [4] [µg/mL] | MIC [5] [µg/mL] | MIC [6] [µg/mL] | MIC [7] [µg/mL] | antimicrobial activity against Helicobacter pylori (in words) [8]
CN/C(=N/CCSCc1nc[nH]c1C)NC#N [Cimetidine] | 800 (≈ 3170 µM) | 800 (≈ 3170 µM) | 800 (≈ 3170 µM) | – | – | – | – | –
CC(C)CN(C)c1ccccc1C[S+]([O-])c1nc2ccccc2[nH]1 (stereo not drawn) [Compound (1), 2-[[2-(N-isobutyl-N-methyl)amino]benzylsulfinyl]benzimidazole] | 25 (≈ 73.2 µM) | 12.5 (≈ 36.6 µM) | 25 (≈ 73.2 µM) | 50 (≈ 146 µM) | 50 (≈ 146 µM) | 12.5 (≈ 36.6 µM) | 25 (≈ 73.2 µM) | –
Cc1c(OCC(F)(F)F)ccnc1C[S+]([O-])c1nc2ccccc2[nH]1 (stereo not drawn) [lansoprazole] | – | – | – | – | – | – | – | have antimicrobial activity against Helicobacter pylori

Second part, led by results:

MIC [1] [µg/mL] | MIC [2] [µg/mL] | MIC [3] [µg/mL] | MIC [4] [µg/mL] | MIC [5] [µg/mL] | MIC [6] [µg/mL] | MIC [7] [µg/mL] | Structure (SMILES) | antimicrobial activity against Helicobacter pylori (in words) [8]
800 (≈ 2370 µM) | 800 (≈ 2370 µM) | > 800 | – | – | – | – | NC(N)=Nc1nc(CSCCC(N)=NS(N)(=O)=O)cs1 [Famotidine] | –
12.5 (≈ 36.2 µM) | 12.5 (≈ 36.2 µM) | 12.5 (≈ 36.2 µM) | 50 (≈ 145 µM) | 50 (≈ 145 µM) | – | 50 (≈ 145 µM) | COc1ccc2[nH]c([S+]([O-])Cc3ncc(C)c(OC)c3C)nc2c1 (stereo not drawn) [Omeprazole] | have antimicrobial activity against Helicobacter pylori
